In US20220306623A1, “PYRIDYL OR PYRIMIDYL MTOR KINASE INHIBITORS” (GLAXOSMITHKLINE INTELLECTUAL PROPERTY DEVELOPMENT LIMITED, priority 2019, published 2022):

Columns and labels:
[1] = tested on: type I collagen deposition in primary lung fibroblasts derived from human tissue; test: Type I collagen deposition (scar-in-a-jar) high content screening assay; type: cell-based; details: Primary lung fibroblast, 72 h, human pulmonary fibroblasts, 96-well, TGFβ-1 1 ng/ml 72 h, collagen intensity, read-out: mean pIC50, type I collagen deposition (scar-in-a-jar) (converted)
Method: Cellular type I collagen deposition was measured by adapting a published method; scar-in-a-jar (Chen et al., 2009) to primary lung fibroblasts derived from human tissue and combining with high content analysis to permit fluorescent quantification of collagen deposited in the extracellular matrix (ECM). The human biological samples were sourced ethically and their research use was in accord with the terms of the informed consents under an IRB/EC approved protocol. Human pulmonary fibroblasts were maintained in DMEM media (Gibco, Catalogue No 21969) supplemented with 4 mM L-glutamine (Gibco Catalogue No 25030-024) and 100/heat inactivated FBS (Gibco #10270-106, Lot #42F6663K) at 37° C. in 10%/CO2. Cells were harvested and seeded at 10,000 cells per well (85 μL/well) into black walled 96 well imaging plates (BD Falcon, 353219) in assay media (0.4%/heat inactivated FBS, 4 mM L-glutamine) and incubated overnight at 37° C., 10%/CO2.
Test compounds were dissolved in 1000/DMSO to give 10 mM stocks which were further diluted (serial 1:3) to generate 10 point concentration response curves. Assay media was supplemented with 112.5 mg/ml Ficoll 70 (Sigma, Catalogue No F2878), 75 mg/ml Ficoll 400 (Sigma, Catalogue No F4375) and 50 µg/ml ascorbic acid (Sigma, Catalogue No A8960). 3 μL compound were added to 297 μL assay media (10× compound final concentration in 1% DMSO).
Diluted compounds (15 μL) were transferred to plates containing cells and incubated for 3 h at 37° C. in 10% CO2. Transforming growth factor (TGF)β-1 (R&D Systems, Catalogue No 100-B/CF) was reconstituted according to manufacturer's instructions to give 10 µg/mL (stock) and further diluted (1 in 3333) in assay media containing Ficoll and ascorbic acid. 50 μL TGFβ-1 was added to cell plates (1 ng/ml final) and cells incubated for 72 h at 37° C. in 10% CO2.
Media was removed and cells were fixed with 50 µL/well 100% ice-cold methanol (2 min). Methanol was decanted and cells washed with PBS (3×). To permeabilise, cells were incubated with PBS containing 0.1% Triton X 100 for 90 sec, followed by PBS wash (3×). Cells were incubated with mouse anti human type I collagen monoclonal antibody (Sigma, Catalogue No C2456) diluted 1:1000 in PBS overnight at 4° C. Cells were washed with PBS containing 0.05% Tween-20 (3×) and incubated with secondary alexa fluor 488 goat-anti-mouse antibody (Invitrogen, Catalogue No A11001, 1 in 500 in PBS) and Hoechst 33342 (Sigma, Catalogue No H21492), 1 in 10000 in PBS) for 1 h at RT, prior to washing with PBS containing 0.05% Tween (×3) before finally adding 200 µL/well PBS.
Type I collagen immunoreactivity was detected using the Thermofisher CellInsight NXT set to excitation and emission wavelengths for DAPI and FITC with exposure adjusted to appropriate levels. Images were analysed using Cellomics Studio software (Version 6.6.0, build 8153) and computational algorithms to quantify “collagen intensity” and “cell count”.
Data analysis was performed by determining % response values for test compounds relative to the maximum (TGFβ-1 stimulation) fitting a ‘log(inhibitor) vs. response-Variable slope (four parameters)’ curve and recording pIC50 (inverse of Log IC50) values for test compounds.

[2] = tested on: phosphorylated Akt at serine 473 (pAKTs473) in primary lung fibroblasts derived from explanted tissue; test: Phosphorylated Akt (Ser473) in vitro immunoassay (MSD), fibroblasts from explanted tissue; type: cell-based; details: Homo sapiens, Primary lung fibroblast, 96-well, compound 2 h, PDGF-BB 10 ng/ml 15 min, read-out: mean pIC50, pAKTs473 immunoassay (converted)
Source text: Immunoassay using the Meso Scale Discovery (MSD) platform to measure the effect of test compounds on phosphorylated Akt at serine 473 (pAKTs473) in primary lung fibroblasts derived from explanted tissue. The human biological samples were sourced ethically and their research use was in accord with the terms of the informed consents under an IRB/EC approved protocol.
Human lung fibroblasts were routinely maintained in Dulbecco's Modified Eagle Medium (DMEM; Gibco, catalogue no. 21969-035) supplemented with 10% foetal bovine serum (FBS (heat-inactivated); Gibco, catalogue no. 10270-106) and 4 mM L-glutamine (Gibco, catalogue no. 25030024) at 37° C. in 10% CO2.
For the assay, cells were harvested using Trypsin/EDTA (Gibco, catalogue no. 25300-062), resuspended to give 1.2×10^5 cells/ml and 100 ul/well seeded into 96-well plates (Corning, Catalogue No. 3596) in DMEM supplemented with 0.4% FCS and 4 mM L-glutamine and incubated overnight at 37° C. in 10% CO2.
Test compounds were dissolved in 100% DMSO to give 10 mM stock solutions and serially diluted to generate a 10-point concentration response curve. Compounds were further diluted 100-fold into 96-well V-bottom polypropylene plates (Greiner, Catalogue no. 651201) with DMEM supplemented with 0.4% FCS and 4 mM L-glutamine to give 100 µM top compound concentration in 1% DMSO.
Compounds were further diluted 10-fold by transfer to 96-well plates containing cells ([…] top concentration, 0.1% DMSO final) and incubated for 2 h at 37° C. in 10% CO2, prior to stimulation with platelet-derived growth factor (PDGF)-BB (Gibco, Catalogue no. PHG0041) at 10 ng/ml (final) for 15 min at 37° C. in 10% CO2. Cell assay plates were then incubated on ice and treated with lysis buffer (Cell Signalling Technology, Catalogue No. 9803) containing protease and phosphatase inhibitors (Halt, Thermo Scientific, Catalogue No. 78444) for 30 min.
MSD plates (MSD, Phospho(Ser473)/Total Akt Whole Cell Lysate Kit, Catalogue No. K15100D-3) were blocked with 1×blocking buffer as per the manufacturer's instructions at RT with shaking, followed by washing (×3) with Tris-buffered saline containing 0.05% Tween-20 (TBST). Cell lysates (30 ul) were added and MSD plates incubated for 1 h at RT with shaking.
Plates were washed with TBST (×3), prior to addition of SULFO-TAG Anti-Total Akt Antibody as per the manufacturer's instructions and shaken at RT for 1 h. After washing with 1×TBST (×3), read buffer (1×) (MSD, Catalogue No. R92TC-1) was added as per the manufacturer's instructions before detecting electrochemiluminescence (MSD Sector Imager 600).
Data analysis was performed using non-linear regression analysis to determine IC50 values for test compounds. Minimum (no PDGF-BB stimulation) and maximum responses (+PDGF-BB stimulation) were monitored for assay quality control.

Row | Compound | IC50 [1] [µM] | IC50 [2] [µM]
1 | CC[C@H]1COCCN1c1cc(CS(=O)(=O)N(CC)CC)nc(-c2ccc3[nH]c(CNC)cc3n2)n1 [Example 30, (S)—N,N-diethyl-1-(6-(3-ethylmorpholino)-2-(2-((methylamino)methyl)-1H-pyrrolo[3,2-b]pyridin-5-yl)pyrimidin-4-yl)methanesulfonamide] | < 3.98 | –
2 | CCCS(=O)(=O)Cc1cc(N2CCOC[C@@H]2CC)nc(-c2ccc3[nH]c(CNC)cc3n2)n1 [Example 32, (S)-1-(5-(4-(3-ethylmorpholino)-6-((propylsulfonyl)methyl)pyrimidin-2-yl)-1H-pyrrolo[3,2-b]pyridin-2-yl)-N-methylmethanamine] | < 3.98 | < 0.1
3 | CC[C@H]1COCCN1c1cc(CS(=O)(=O)CC)nc(-c2ccc3[nH]c(CNC)cc3n2)n1 [Example 33, (S)-1-(5-(4-(3-ethylmorpholino)-6-((ethylsulfonyl)methyl)pyrimidin-2-yl)-1H-pyrrolo[3,2-b]pyridin-2-yl)-N-methylmethanamine] | < 3.98 | –
